From PubChem BioAssay AID1552 (Sanford-Burnham Center for Chemical Genomics, 2009)
Activity calls are given as the source filed them. How the calls were made is not given here.

molecular target: Ubiquitin-conjugating enzyme E2 N (Homo sapiens) (UniProt P61088); test: NMR detection of UBE2N ligand binding – biophysical, purified protein (AID 1552); conditions: NMR binding to purified UBE2N
Sequence (P61088 whole entry, looked up): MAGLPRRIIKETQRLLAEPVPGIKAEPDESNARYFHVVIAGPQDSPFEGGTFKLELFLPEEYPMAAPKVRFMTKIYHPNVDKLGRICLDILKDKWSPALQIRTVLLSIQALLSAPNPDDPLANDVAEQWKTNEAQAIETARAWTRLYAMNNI

| SMILES | Kd |
| --- | --- |
| CNC(=O)c1ccc([N+](=O)[O-])cc1Cl | > 4 mM (inactive) |
| COc1cccc2c(=O)n(CC(N)=O)ccc12 | > 4 mM (inactive) |
| CCOc1ccc(-c2n[nH]c(=S)n2C)cc1 | > 4 mM (inactive) |
| COc1cc(O)c2c(=O)cc(-c3ccc(OC)c(-c4c(O)cc(O)c5c(=O)cc(-c6ccc(O)cc6)oc45)c3)oc2c1 | > 4 mM (inactive) |
| Clc1ccc(-c2nnc3ccccn23)cc1 | > 4 mM (inactive) |
| c1cc2c(cc1[C@H]1OC[C@H]3[C@@H]1CO[C@H]3c1ccc3c(c1)OCO3)OCO2 | > 4 mM (inactive) |
| CN1C(=O)N(C)C2NC(=O)NC21 (stereo unspecified) | > 4 mM (inactive) |
| Cc1nc(-c2ccccc2)sc1C(N)=O | > 4 mM (inactive) |
| NC1=NC(=O)C(Cc2ccccc2)S1 (stereo unspecified) | > 4 mM (inactive) |
| CCN1C(=O)c2c(C)nc3ccccc3c2C1=O | > 4 mM (inactive) |
| O=C(Nc1ncccn1)c1cccc(F)c1 | > 4 mM (inactive) |
| O=C1CCCN1c1ccc(S(=O)O)cc1 | > 4 mM (inactive) |
| O=C1NC(=S)NC(=O)C1=Cc1ccco1 | > 4 mM (inactive) |
| COc1ccc(C)cc1-n1c(-c2ccncc2)n[nH]c1=S | > 4 mM (inactive) |
| CCC(C)C(=O)c1c(O)c(C)c2oc3c(C)c(O)c(C(=O)C(C)CC)c(O)c3c2c1O (stereo unspecified) | > 4 mM (inactive) |
| NC(=O)Cn1nc(-c2ccc(F)cc2)ccc1=O | > 4 mM (inactive) |
| CC[C@H](CCC(C)[C@H]1CCC2C3CCC4C[C@@H](O)CC[C@]4(C)C3CC[C@@]21C)C(C)C (stereo partly specified) | > 4 mM (inactive) |
| CC1(C)CC(=O)c2cnn(-c3nc4ccccc4[nH]3)c2C1 | > 4 mM (inactive) |
| O=C1CSC(=Nc2ccc(O)cc2)N1 | > 4 mM (inactive) |
| CS(=O)(=O)N1CCN(C(=O)Cc2cccs2)CC1 | > 4 mM (inactive) |
| CC(=O)O[C@H]1C[C@@H](OC(C)=O)C(C)(C)C2CC(=O)[C@]3(C)C(CC[C@@]4(C)[C@H](c5ccoc5)OC(=O)[C@H]5O[C@]543)[C@]21C (stereo partly specified) | > 4 mM (inactive) |
| Oc1ccc(-n2cncn2)cc1 | > 4 mM (inactive) |
| Cc1ccc(C(=O)N2CCC(C(=O)O)CC2)cc1 | > 4 mM (inactive) |
| O=c1c(-c2ccco2)[n+]([O-])c2ccccc2n1O | > 4 mM (inactive) |
| CC(=O)N1CC2(C)CN(C(C)=O)CC(C)(C1)C2O (stereo unspecified) | > 4 mM (inactive) |

| SMILES | Kd |
| --- | --- |
| Cc1cc(NC(=O)Cc2cccs2)no1 | > 4 mM (inactive) |
| CC(=O)Nc1nnc(-c2ccccc2)o1 | > 4 mM (inactive) |
| NCc1c[nH]c2ccccc12 | > 4 mM (inactive) |
| CC1(C(=O)O)CC2C=CC1C2 (stereo unspecified) | > 4 mM (inactive) |
| O=c1c2ccccc2nc2n1CCS2 | > 4 mM (inactive) |
| O=c1[nH]cnc2c1nnn2Cc1ccccc1 | > 4 mM (inactive) |
| Cc1nc2sccn2c1C(=O)O | > 4 mM (inactive) |
| O=C(O)c1ccc2nccnc2c1 | > 4 mM (inactive) |
| OCc1cc(F)cc2c1OCOC2 | > 4 mM (inactive) |
| CC12CCC(O)CC1CCC1C2[C@H](O)CC2(C)C(C3=CC(=O)OC3)CCC12O (stereo partly specified) | > 4 mM (inactive) |
| Cc1nnsc1-c1onc(C)c1C(=O)O | > 4 mM (inactive) |
| CC(=O)C1CCC2C3CCC4C[C@H](O)CCC4(C)C3C[C@H](O)C12C (stereo partly specified) | > 4 mM (inactive) |
| O=[N+]([O-])c1ccc2c(c1)N([O-])C1(CCCCC1)[N+]2=O | > 4 mM (inactive) |
| O=C(O)c1scc2c1CCCC2 | > 4 mM (inactive) |
| O=C(Nc1ccccc1)NC1CCS(=O)(=O)C1 (stereo unspecified) | > 4 mM (inactive) |
| O=C1C(=O)N(CN2CCN(CCO)CC2)c2ccccc21 | > 4 mM (inactive) |
| Oc1ccccc1N1CCOCC1 | > 4 mM (inactive) |
| NC(=O)CCN1C(=O)c2ccccc2C1=O | > 4 mM (inactive) |
| O=C(Nc1nnc(-c2ccncc2)o1)c1cccs1 | > 4 mM (inactive) |
| COc1nc(C#N)c(N2CCOCC2)o1 | > 4 mM (inactive) |
| CC(=O)Nc1ccc(S(=O)(=O)NCC2CCCO2)cc1 (stereo unspecified) | > 4 mM (inactive) |
| COC(=O)c1scc(C)c1N | > 4 mM (inactive) |
| O=C1CCNc2ccccc2N1 | > 4 mM (inactive) |
| O=C(O)C1CN(Cc2ccccc2)CCO1 (stereo unspecified) | > 4 mM (inactive) |
| COC(=O)c1cccc(Cn2nnc3ccccc3c2=O)c1 | > 4 mM (inactive) |

| SMILES | Kd |
| --- | --- |
| O=S(=O)(NCc1ccco1)N1CCOCC1 | > 4 mM (inactive) |
| O=C1CCC(=O)N1CN1CCOCC1 | > 4 mM (inactive) |
| O=C(Nc1ccc2c(c1)OCO2)c1cccc(F)c1 | > 4 mM (inactive) |
| CC(C)=NNC(=O)c1ccccc1 | > 4 mM (inactive) |
| COC(=O)C[C@@H]1C2(C)C(=O)[C@@H](CC3=C4CC(O)O[C@@H](c5ccoc5)[C@]4(C)CCC32)[C@H](O)C1(C)C (stereo partly specified) | > 4 mM (inactive) |
| CC(=O)CC1CCCCN1 (stereo unspecified) | > 4 mM (inactive) |
| CC(=O)c1c(O)cc(C)n(Cc2ccccc2)c1=O | > 4 mM (inactive) |
| O=C(NN1C(=O)CSC1=S)c1ccccc1 | > 4 mM (inactive) |
| CCN(CC)C(=O)c1n[nH]c(=O)c2ccccc12 | > 4 mM (inactive) |
| Cc1ccc(C(=O)N2CC(=O)NC(=O)C2)cc1 | > 4 mM (inactive) |
| Cc1ccc2c(c1)CCCN2C(=O)c1c(C)noc1C | > 4 mM (inactive) |
| COc1cc(/C=C2\SC(=S)NC2=O)ccc1O | > 4 mM (inactive) |
| CC1(C)SCC(C(=O)O)N1C=O (stereo unspecified) | > 4 mM (inactive) |
| Nc1cc(N)nc(SCc2cccnc2)n1 | > 4 mM (inactive) |
| NCc1ccc(-n2cccn2)cc1 | > 4 mM (inactive) |
| S=C(NCc1cccnc1)NC1CC1 | > 4 mM (inactive) |
| Nc1nc(-c2cccnc2)nn1C(=O)Cc1ccccc1 | > 4 mM (inactive) |
| Cc1[nH]c2ccccc2c1C(=O)CSc1ncn[nH]1 | > 4 mM (inactive) |
| Cc1cc(C(=O)N2CCN(c3ccccn3)CC2)no1 | > 4 mM (inactive) |
| O=C(O)c1ccc(CSc2ncn[nH]2)cc1 | > 4 mM (inactive) |
| O=C(NC(=S)NCCO)c1ccccc1 | > 4 mM (inactive) |
| COc1ccccc1NC(C)=O | > 4 mM (inactive) |
| CC(C)n1c(-c2ccncc2)n[nH]c1=S | > 4 mM (inactive) |
| O=C(O)CCC(=O)Nc1nccs1 | > 4 mM (inactive) |
| COc1cc(-c2csc(C)n2)ccc1O | > 4 mM (inactive) |

| SMILES | Kd |
| --- | --- |
| Cc1oc(-c2ccccc2)nc1CCO | > 4 mM (inactive) |
| O=C1CN(C(=O)c2ccccc2F)c2ccccc2N1 | > 4 mM (inactive) |
| C=C1C(=O)O[C@@H]2C3OC3(C)CC/C=C(\C)CC[C@@H]12 (stereo partly specified) | > 4 mM (inactive) |
| CC(=O)Nc1sccc1C(=O)NC(N)=O | > 4 mM (inactive) |
| Nc1cc(-c2ccco2)[nH]n1 | > 4 mM (inactive) |
| COc1ccc2nc(N)sc2c1 | > 4 mM (inactive) |
| NCc1ccc(-c2csnn2)cc1 | > 4 mM (inactive) |
| Cn1c(CSc2nc3ccccc3s2)n[nH]c1=S | > 4 mM (inactive) |
| COc1ccc(O)c(-c2cn[nH]c2-c2cccs2)c1 | > 4 mM (inactive) |
| NC(=O)c1ccccc1NC(=O)c1cccnc1 | > 4 mM (inactive) |
| CSc1ncc(C(=O)O)n1Cc1ccccc1 | > 4 mM (inactive) |
| CC(=O)Nc1cc(O)cc(O)c1 | > 4 mM (inactive) |
| Cc1[nH]c2ccccc2c1CN(C)C | > 4 mM (inactive) |
| COc1ccc(-c2nc(C)sc2CC(=O)O)cc1 | > 4 mM (inactive) |
| O=S1(=O)CCC(NC(=S)Nc2ccc(O)cc2)C1 (stereo unspecified) | > 4 mM (inactive) |
| O=C(c1ccco1)N1CCn2c1nc1ccccc12 | > 4 mM (inactive) |
| CC(=O)Nc1ccc(S(N)(=O)=O)cc1 | > 4 mM (inactive) |
| Cc1nccn1CCC(=O)O | > 4 mM (inactive) |
| Nc1ccc2c(c1)OCO2 | > 4 mM (inactive) |
| CC(=O)Nc1ccc(Nc2nnc(C)c(=O)[nH]2)cc1 | > 4 mM (inactive) |
| Cc1nc2ccccc2c(=O)n1/N=C/c1ccco1 | > 4 mM (inactive) |
| COc1ccc2c(c1OC)C(=O)O[C@@H]2[C@@H]1c2cc3c(cc2CCN1C)OCO3 | > 4 mM (inactive) |
| O=C1N/C(=N\c2ccccn2)SC1Cc1ccccc1 (stereo unspecified) | > 4 mM (inactive) |
| O=C1CSC(=Nc2cccc(C(F)(F)F)c2)N1 | > 4 mM (inactive) |
| COc1cc2c(cc1OC)[C@@H]1C(=O)c3ccc(OC)c(CC=C(C)C)c3O[C@@H]1CO2 | > 4 mM (inactive) |

| SMILES | Kd |
| --- | --- |
| O=C(O)c1cc(O)c2c(c1)C(=O)c1cc(O)cc(O)c1C2=O | > 4 mM (inactive) |
| O=[n+]1cc(C2=CC=CCC2)n([O-])c2c1CCCCC2 | > 4 mM (inactive) |
| O=c1c(O)c(-c2ccccc2)oc2ccccc12 | > 4 mM (inactive) |
| Cc1ccc(-n2[nH]c(C)cc2=O)cc1 | > 4 mM (inactive) |
| Cc1nn2c(=O)/c(=C/c3cccc(F)c3)sc2nc1=O | > 4 mM (inactive) |
| CC1CN=C(Nc2ccccc2)S1 (stereo unspecified) | > 4 mM (inactive) |
| Nc1ccc(CN2CCOCC2)cc1 | > 4 mM (inactive) |
| COc1ccc(-c2coc3c(OC)c(OC)cc(O)c3c2=O)cc1 | > 4 mM (inactive) |
| O=c1[nH]c2sc3c(c2c2nncn12)CCCC3 | > 4 mM (inactive) |
| NC(=O)Cn1nc(-c2ccco2)ccc1=O | > 4 mM (inactive) |
| Nc1c(/C=C2\C=Nc3ccccc32)c(=O)nc2scnn12 | > 4 mM (inactive) |
| OC1CNCc2cc3c(cc21)OCCO3 (stereo unspecified) | > 4 mM (inactive) |
| COc1ccccc1NC(=O)c1snnc1C | > 4 mM (inactive) |
| NC(=O)c1ccc(SCC(=O)O)c([N+](=O)[O-])c1 | > 4 mM (inactive) |
| COc1cc2c(c(OC)c1OC)-c1ccc(O)c(=O)cc1[C@@H](NC(C)=O)CC2 | > 4 mM (inactive) |
| COc1cc(C(C)=O)ccc1OCC(O)Cn1ccnc1 (stereo unspecified) | > 4 mM (inactive) |
| Cc1occc1C(=O)Nc1sccc1C(N)=O | > 4 mM (inactive) |
| Cc1cc(C)nc(/N=C(/N)Nc2cccc(F)c2)n1 | > 4 mM (inactive) |
| Cc1occc1C(=O)Nc1cc(C(C)(C)C)on1 | > 4 mM (inactive) |
| C[C@H]1CCCC(=O)CCC/C=C/c2cc(O)cc(O)c2C(=O)O1 | > 4 mM (inactive) |
| O=C(Nc1cnccn1)c1ccncc1 | > 4 mM (inactive) |
